Results taken from PubChem BioAssay (NCI).
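How tested: cells in 96-well plates exposed to compound for 48 hours at five concentrations. GI50: concentration for 50% inhibition of growth. TGI: concentration producing complete growth inhibition.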 Where a SMILES comes first, the peptide text is derived from it. [ ]: non-standard residue; d: D form. The star is where a group is joined. ξ: configuration not given here. ξPhe(4-NO2) = NC(Cc1ccc([N+](=O)[O-])cc1)C(=O)O; Boc = CC(C)(C)OC(=O)*

How the values were obtained:
Test in all cases: NCI-60 cell line screen, 48 h
A498 renal = test system: A498 renal
HL-60(TB) leukemia = test system: HL-60(TB) leukemia
MALME-3M melanoma = test system: MALME-3M melanoma
HCC-2998 colon = test system: HCC-2998 colon
MDA-N = test system: MDA-N
CAKI-1 renal = test system: CAKI-1 renal
SNB-19 CNS = test system: SNB-19 CNS
KM12 colon = test system: KM12 colon
BT-549 breast = test system: BT-549 breast
MDA-MB-435 = test system: MDA-MB-435
NCI-H226 lung = test system: NCI-H226 lung
UACC-257 melanoma = test system: UACC-257 melanoma

Structure (SMILES) | TGI (A498 renal) [µM] | TGI (HL-60(TB) leukemia) [µM] | TGI (MALME-3M melanoma) [µM] | TGI (HCC-2998 colon) [µM] | TGI (MDA-N) [µM] | TGI (CAKI-1 renal) [µM] | TGI (SNB-19 CNS) [µM] | TGI (KM12 colon) [µM] | TGI (BT-549 breast) [µM] | TGI (MDA-MB-435) [µM] | TGI (NCI-H226 lung) [µM] | TGI (UACC-257 melanoma) [µM] | GI50 (MALME-3M melanoma) [µM] | GI50 (KM12 colon) [µM] | GI50 (NCI-H226 lung) [µM]
CCNC(=O)CNC(=O)C(Cc1ccc([N+](=O)[O-])cc1)NC(=O)OC(C)(C)C (configuration not stated) (Boc-[ξPhe(4-NO2)]-Gly-NHEt) | > 100 | > 100 | > 100 | > 100 | > 100 | > 100 | > 100 | > 100 | > 100 | > 100 | > 100 |  |  |  | 
N#CC1=C(S)N(C2OC(CO)C(O)C(O)C2O)C(c2ccccc2)=CC1c1cccs1 (configuration not stated) | > 10 | > 100 | 38.7 | 44.8 | 30.9 | 50.4 | > 10 | 34.7 | 30.4 | 44.1 | 41.3 | 40.8 |  |  | 
N#Cc1c2ccc([N+](=O)[O-])cc2c(=O)n2c1sc1ccccc12 | 56.4 | 66.1 |  | 38.7 | > 100 | > 100 | 36.9 | > 100 | > 100 | > 100 | 47.5 | > 100 |  |  | 
C=CCOC1OC(CS(=O)(=O)O)C(OC(C)=O)C(OC(C)=O)C1OC(C)=O (configuration not stated) | > 100 | > 100 | > 100 | > 100 | > 100 | > 100 | > 100 | > 100 | > 100 | > 100 | > 100 | > 100 |  |  | 
FC(F)(F)C1(c2ccccc2)SCc2nc3ccccc3n21 (configuration not stated) | > 100 | > 100 | > 100 | > 100 | > 100 | > 100 | > 100 | > 100 | > 100 | > 100 | > 100 | > 100 |  |  | 
COc1ccc(Br)c(C=Nc2cccc3cc(OC)c(OC)cc23)c1 | > 100 | 7.97 | 99.6 | > 100 | > 41.4 | > 100 | > 100 | > 95.7 | > 46 | 12.6 | > 100 | > 100 |  |  | 
COc1ccc2c(c1)OC1c3ccccc3OCC21 (configuration not stated) | > 100 | > 100 |  | > 100 | > 100 | > 100 | > 100 | > 100 | > 100 | > 100 | > 100 | > 100 |  |  | 
COC(=O)[C@]1(Cc2ccc3ccccc3c2)CCCCCCN1C(=O)c1ccccc1 | > 51.5 | > 40.4 | > 53.2 | > 49 | > 53.5 |  | > 81.8 | > 49 | > 54 | > 53.1 | > 52.8 | 25 |  |  | 
CC1(C)CC[C@]2(C(=O)O)CC[C@]3(C)C(=CC[C@@H]4[C@@]5(C)CC[C@H](OC6OC(CO)C(O)C(O)C6O)C(C)(C)[C@@H]5CC[C@]43C)[C@@H]2C1 (some centres not stated) | 3.82 | 3.83 | 3.16 | 3.18 | 3.54 | 5.93 | 2.89 | 2.86 | 2.59 | 3.39 | 3.4 | 3.13 |  |  | 
Cc1ccc(N2C3=C(CC4=C2CC(C)(C)CC4=O)C(=O)CC(C)(C)C3)cc1 | > 100 | > 100 | > 100 | > 100 | > 100 | > 100 | > 100 | > 100 | > 100 | > 100 | > 100 | > 100 |  |  | 
O=C1CSC(c2cccc(Oc3ccccc3)c2)N1c1cccc(Cl)c1Cl (configuration not stated) | 93.5 | 70.2 | 82.9 | 26.2 | 58.7 | > 100 | > 100 | > 100 | 50.4 | 56.1 | > 100 | 61.5 |  |  | 
COc1c2occc2cc2ccc(=O)oc12 | > 100 | > 100 | > 100 | > 100 | > 100 | > 100 | > 100 | > 100 | > 100 | > 100 | > 100 | > 100 | > 100 | > 100 | > 100
CN(C)c1c(C2CC(O)C(CO)O2)c(=O)c1=O (configuration not stated) | > 100 | > 100 |  | > 100 | > 100 |  | > 100 | > 100 | > 100 | > 100 | > 100 | > 100 |  |  | 
CCSc1nc(C)nc2c1sc1nc3ccccc3n12 | > 100 | > 100 |  | > 100 | > 100 | > 100 | > 100 | > 100 | > 100 | > 100 | > 100 | > 100 |  |  | 
O=P(O)(O)CC1OC(CO)C(O)C1O (configuration not stated) | > 100 | > 100 | > 100 | > 100 | > 100 | > 100 | > 100 | > 100 | > 100 | > 100 | > 100 | > 100 |  |  | 
NS(=O)(=O)c1nnc(NC(=O)/C=C/C(=O)O)s1 | > 100 | > 100 | > 100 | > 100 | > 100 | > 100 | > 100 | > 100 | > 100 | > 100 |  | > 100 |  |  | 
COC(=O)C1(Cc2ccc(C)cc2)Cc2c(C)cccc2C1=O (configuration not stated) | 41.8 | 25 | 30.8 | 42.2 | 14.4 | > 100 | 90.3 | 39.5 | 69.7 | 13.2 | 38.4 | 91.3 |  |  | 
CC(C)(C)OC(=O)N1CCC(NC(=O)NC2CCN(C(=O)OC(C)(C)C)CC2)CC1 | > 100 | > 100 | > 100 | > 100 | > 100 | > 100 | > 100 | > 100 | 12.6 | > 100 |  | > 100 |  |  | 
OC1(C2(c3ccc(Cl)cc3)CCCC2)c2ccccc2C2=NCCN21 (configuration not stated) | 29.4 | 33.2 | 34.7 | 4 | 29.7 | 28.9 | 30.5 | 36.3 | 31.5 | 26.7 | 33 | 29.4 |  |  | 
